Test results reported in US20060069132A1, “Azolecarboxamide herbicides” (priority 2004, published 2006).

What was measured:
lambsquarters = experiment: Test F pre-/postemergence herbicide test; assay type: in vivo, Chenopodium album
Text: (§1) Seeds of plant species selected from annual blugrass (Poa annua L.), blackgrass (Alopecurus myosuroides Huds.), catchweed bedstraw (Gallium aparine L.), common chickweed (Stellaria media (L.) Vill./Cyr.), downy bromegrass (Bromus tectorum L.), green foxtail (Setaria viridis (L.) Beauv.), Italian ryegrass (Lolium multiflorum Lam.), kochia (Kochia scoparia (L.). Schrad.), lambsquarters (Chenopodium album L.), littleseed canarygrass (Phalaris minor Retz.), pigweed (Amaranthus retroflexus L.), Russian thistle (Salsola kali L. ssp. Ruthenica (Iljin) Soo), wild buckwheat (Polygonum convolvulus L.), wild mustard (Sinapis arvensis L.), wild oat (Avena fatua L.), windgrass (Apera spica-venti (L.) Beauv.), winter barley (Hordeum vulgare L.), and wheat (Triticum aestivum L.) were planted and treated preemergence with test chemicals formulated in a non-phytotoxic solvent mixture which included a surfactant.
(§2) At the same time, plants selected from these crop and weed species were treated with postemergence applications of some of the test chemicals formulated in the same manner. Plants ranged in height from 2 to 18 cm (1- to 4-leaf stage) for postemergence treatments. Treated plants and controls were maintained in a greenhouse for 12 to 14 days, after which time all species were compared to controls and visually evaluated. Plant response ratings, summarized in Table F, are based on a scale of 0 to 100 where 0 is no effect and 100 is complete control. A dash (-) response means no test result.

wheat = experiment: Test F pre-/postemergence herbicide test; assay type: in vivo, Triticum aestivum
Method in brief: (§3)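 Visual rating versus controls, 0 (no effect) to 100 (complete control), taken 12 to 14 days after treatment in the greenhouse. Preemergence sprays were applied at planting; postemergence sprays were applied to 1- to 4-leaf plants (2 to 18 cm). Chemicals were formulated in non-phytotoxic solvent plus surfactant.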

wheat cv. Retical = experiment: Test H safening on wheat by naphthalic anhydride seed treatment, pre-/postemergence; assay type: in vivo, Triticum aestivum; design: key to Response of wheat, Without naphthalic anhydride seed treatment: 0 = no effect, 100 = complete plant death, vs untreated control
Method in brief: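 Wheat cv. Retical seed, some dressed with 1% naphthalic anhydride, was grown in sandy loam. It was sprayed preemergence at planting or postemergence at the 2-leaf stage, at 280 L/ha. Injury was rated visually 0–100 against untreated controls at 25 days (pre) or 14 days (post).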

Italian ryegrass = experiment: Test F pre-/postemergence herbicide test; assay type: in vivo, Lolium multiflorum
Text: as §1, §2

littleseed canarygrass = experiment: Test F pre-/postemergence herbicide test; assay type: in vivo, Phalaris minor
Text: as §1, §2

green foxtail = experiment: Test F pre-/postemergence herbicide test; assay type: in vivo, Setaria viridis
Method in brief: as §3

blackgrass = experiment: Test F pre-/postemergence herbicide test; assay type: in vivo, Alopecurus myosuroides
Text: as §1, §2

downy bromegrass = experiment: Test F pre-/postemergence herbicide test; assay type: in vivo, Bromus tectorum
Text: as §1, §2

[1] = system: corn (maize) cv. Pioneer 33G26; experiment: Test G safening on corn by naphthalic anhydride seed treatment, preemergence; assay type: in vivo, Zea mays
Method in brief: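 Pioneer 33G26 corn seed was pretreated with fludioxonil/metalaxyl, with or without a 1% w/w naphthalic anhydride dressing, and sown in sandy loam. Compounds were sprayed preemergence at 280 L/ha, triplicate, in a greenhouse at 28/23 °C with a 16 h photoperiod. Injury was rated visually 0–100 versus untreated controls 25 days after treatment.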

wild oat = experiment: Test F pre-/postemergence herbicide test; assay type: in vivo, Avena fatua
Text: as §1, §2

SMILES: CCn1nc(C(C)(C)C)cc1C(=O)Nc1cccc(C(N)=O)n1 [Compound 162, 6-[[[3-(1,1-dimethylethyl)-1-ethyl-1H-pyrazol-5-yl]carbonyl]amino]-2-pyridinecarboxamide]
- Plant response rating (0-100), Lambsquarters (lambsquarters; Postemergence, 62 g ai/ha): 100
- Plant response rating (0-100), Lambsquarters (lambsquarters; Postemergence, 125 g ai/ha): 100
- Plant response rating (0-100), Lambsquarters (lambsquarters; Postemergence, 250 g ai/ha): 100
- Plant response rating (0-100), Lambsquarters (lambsquarters; Postemergence, 500 g ai/ha): 100
- Plant response rating (0-100), Lambsquarters (lambsquarters; Preemergence, 62 g ai/ha): 100
- Plant response rating (0-100), Lambsquarters (lambsquarters; Preemergence, 125 g ai/ha): 100
- Plant response rating (0-100), Lambsquarters (lambsquarters; Preemergence, 250 g ai/ha): 100
- Plant response rating (0-100), Lambsquarters (lambsquarters; Preemergence, 500 g ai/ha): 100
- Plant response rating (0-100), Wheat (wheat; Postemergence, 62 g ai/ha): 20
- Plant response rating (0-100), Wheat (wheat; Postemergence, 125 g ai/ha): 40
- Plant response rating (0-100), Wheat (wheat; Postemergence, 250 g ai/ha): 50
- Plant response rating (0-100), Wheat (wheat; Postemergence, 500 g ai/ha): 70
- Plant response rating (0-100), Wheat (wheat; Preemergence, 62 g ai/ha): 60
- Plant response rating (0-100), Wheat (wheat; Preemergence, 125 g ai/ha): 100
- Plant response rating (0-100), Wheat (wheat; Preemergence, 250 g ai/ha): 100
- Plant response rating (0-100), Wheat (wheat; Preemergence, 500 g ai/ha): 100
- Response of wheat, With 1% naphthalic anhydride seed treatment (wheat cv. Retical; postemergence, 62 g a.i./ha): 5
- Response of wheat, Without naphthalic anhydride seed treatment (wheat cv. Retical; postemergence, 62 g a.i./ha): 5
- Response of wheat, With 1% naphthalic anhydride seed treatment (wheat cv. Retical; postemergence, 125 g a.i./ha): 30
- Response of wheat, Without naphthalic anhydride seed treatment (wheat cv. Retical; postemergence, 125 g a.i./ha): 70
- Response of wheat, With 1% naphthalic anhydride seed treatment (wheat cv. Retical; preemergence, 62 g a.i./ha): 47
- Response of wheat, Without naphthalic anhydride seed treatment (wheat cv. Retical; preemergence, 62 g a.i./ha): 60
- Response of wheat, With 1% naphthalic anhydride seed treatment (wheat cv. Retical; preemergence, 125 g a.i./ha): 62
- Response of wheat, Without naphthalic anhydride seed treatment (wheat cv. Retical; preemergence, 125 g a.i./ha): 98
- Response of wheat, With 1% naphthalic anhydride seed treatment (wheat cv. Retical; preemergence, 250 g a.i./ha): 96
- Response of wheat, Without naphthalic anhydride seed treatment (wheat cv. Retical; preemergence, 250 g a.i./ha): 98
- Plant response rating (0-100), Ryegrass, Italian (Italian ryegrass; Postemergence, 62 g ai/ha): 70
- Plant response rating (0-100), Ryegrass, Italian (Italian ryegrass; Postemergence, 125 g ai/ha): 80
- Plant response rating (0-100), Ryegrass, Italian (Italian ryegrass; Postemergence, 250 g ai/ha): 90
- Plant response rating (0-100), Ryegrass, Italian (Italian ryegrass; Postemergence, 500 g ai/ha): 100
- Plant response rating (0-100), Ryegrass, Italian (Italian ryegrass; Preemergence, 62 g ai/ha): 100
- Plant response rating (0-100), Ryegrass, Italian (Italian ryegrass; Preemergence, 125 g ai/ha): 100
- Plant response rating (0-100), Ryegrass, Italian (Italian ryegrass; Preemergence, 250 g ai/ha): 100
- Plant response rating (0-100), Ryegrass, Italian (Italian ryegrass; Preemergence, 500 g ai/ha): 100
- Plant response rating (0-100), Canarygrass (littleseed canarygrass; Postemergence, 62 g ai/ha): 70
- Plant response rating (0-100), Canarygrass (littleseed canarygrass; Postemergence, 125 g ai/ha): 70
- Plant response rating (0-100), Canarygrass (littleseed canarygrass; Postemergence, 250 g ai/ha): 100
- Plant response rating (0-100), Canarygrass (littleseed canarygrass; Postemergence, 500 g ai/ha): 100
- Plant response rating (0-100), Canarygrass (littleseed canarygrass; Preemergence, 62 g ai/ha): 100
- Plant response rating (0-100), Canarygrass (littleseed canarygrass; Preemergence, 125 g ai/ha): 100
- Plant response rating (0-100), Canarygrass (littleseed canarygrass; Preemergence, 250 g ai/ha): 100
- Plant response rating (0-100), Canarygrass (littleseed canarygrass; Preemergence, 500 g ai/ha): 100
- Plant response rating (0-100), Foxtail, Green (green foxtail; Postemergence, 62 g ai/ha): 50
- Plant response rating (0-100), Foxtail, Green (green foxtail; Postemergence, 125 g ai/ha): 50
- Plant response rating (0-100), Foxtail, Green (green foxtail; Postemergence, 250 g ai/ha): 60
- Plant response rating (0-100), Foxtail, Green (green foxtail; Postemergence, 500 g ai/ha): 100
- Plant response rating (0-100), Foxtail, Green (green foxtail; Preemergence, 62 g ai/ha): 70
- Plant response rating (0-100), Foxtail, Green (green foxtail; Preemergence, 125 g ai/ha): 100
- Plant response rating (0-100), Foxtail, Green (green foxtail; Preemergence, 250 g ai/ha): 100
- Plant response rating (0-100), Foxtail, Green (green foxtail; Preemergence, 500 g ai/ha): 100
- Plant response rating (0-100), Blackgrass (blackgrass; Postemergence, 62 g ai/ha): 70
- Plant response rating (0-100), Blackgrass (blackgrass; Postemergence, 125 g ai/ha): 80
- Plant response rating (0-100), Blackgrass (blackgrass; Postemergence, 250 g ai/ha): 100
- Plant response rating (0-100), Blackgrass (blackgrass; Postemergence, 500 g ai/ha): 100
- Plant response rating (0-100), Blackgrass (blackgrass; Preemergence, 62 g ai/ha): 90
- Plant response rating (0-100), Blackgrass (blackgrass; Preemergence, 125 g ai/ha): 100
- Plant response rating (0-100), Blackgrass (blackgrass; Preemergence, 250 g ai/ha): 100
- Plant response rating (0-100), Blackgrass (blackgrass; Preemergence, 500 g ai/ha): 100
- Plant response rating (0-100), Bromegrass, Downy (downy bromegrass; Postemergence, 62 g ai/ha): 50
- Plant response rating (0-100), Bromegrass, Downy (downy bromegrass; Postemergence, 125 g ai/ha): 50
- Plant response rating (0-100), Bromegrass, Downy (downy bromegrass; Postemergence, 250 g ai/ha): 80
- Plant response rating (0-100), Bromegrass, Downy (downy bromegrass; Postemergence, 500 g ai/ha): 90
- Plant response rating (0-100), Bromegrass, Downy (downy bromegrass; Preemergence, 62 g ai/ha): 70
- Plant response rating (0-100), Bromegrass, Downy (downy bromegrass; Preemergence, 125 g ai/ha): 100
- Plant response rating (0-100), Bromegrass, Downy (downy bromegrass; Preemergence, 250 g ai/ha): 100
- Plant response rating (0-100), Bromegrass, Downy (downy bromegrass; Preemergence, 500 g ai/ha): 100
- Response of corn, With 1% naphthalic anhydride seed treatment ([1]; 62 g a.i./ha): 0
- Response of corn, Without naphthalic anhydride seed treatment ([1]; 62 g a.i./ha): 15
- Response of corn, With 1% naphthalic anhydride seed treatment ([1]; 125 g a.i./ha): 25
- Response of corn, Without naphthalic anhydride seed treatment ([1]; 125 g a.i./ha): 30
- Response of corn, With 1% naphthalic anhydride seed treatment ([1]; 250 g a.i./ha): 60
- Response of corn, Without naphthalic anhydride seed treatment ([1]; 250 g a.i./ha): 68
- Response of corn, With 1% naphthalic anhydride seed treatment ([1]; 500 g a.i./ha): 63
- Response of corn, Without naphthalic anhydride seed treatment ([1]; 500 g a.i./ha): 85
- Plant response rating (0-100), Oat, Wild (wild oat; Postemergence, 62 g ai/ha): 70
- Plant response rating (0-100), Oat, Wild (wild oat; Postemergence, 125 g ai/ha): 80
- Plant response rating (0-100), Oat, Wild (wild oat; Postemergence, 250 g ai/ha): 100
- Plant response rating (0-100), Oat, Wild (wild oat; Postemergence, 500 g ai/ha): 100
- Plant response rating (0-100), Oat, Wild (wild oat; Preemergence, 62 g ai/ha): 100
- Plant response rating (0-100), Oat, Wild (wild oat; Preemergence, 125 g ai/ha): 100
- Plant response rating (0-100), Oat, Wild (wild oat; Preemergence, 250 g ai/ha): 100
- Plant response rating (0-100), Oat, Wild (wild oat; Preemergence, 500 g ai/ha): 100
